Results on 18 compounds are retold here after patent publication US12486253B2, “Therapeutics for the degradation of mutant BRAF” (C4 THERAPEUTICS, INC., priority 2021, dated 2025).

The experiment concerns the target BRAF V600E (Homo sapiens, UniProt P15056, V600E). Nature of the experiment: HiBiT cellular BRAF^V600E degradation assay. The following applies: for DC50: concentration at which 50% of total cellular BRAF^V600E is degraded; for Emax: read-out: HiBit 24 h Emax. The format is cell-based. A general note: With HiBiT, luminescence reflects the tagged protein that the partner subunit can reach.

Where [1] appears, read: A375.10 cells, 24 h, residual protein remaining in the cell.

Read-outs that look alike come from different tables or passages of the source.

Chain of BRAF V600E (P15056 whole entry V600E): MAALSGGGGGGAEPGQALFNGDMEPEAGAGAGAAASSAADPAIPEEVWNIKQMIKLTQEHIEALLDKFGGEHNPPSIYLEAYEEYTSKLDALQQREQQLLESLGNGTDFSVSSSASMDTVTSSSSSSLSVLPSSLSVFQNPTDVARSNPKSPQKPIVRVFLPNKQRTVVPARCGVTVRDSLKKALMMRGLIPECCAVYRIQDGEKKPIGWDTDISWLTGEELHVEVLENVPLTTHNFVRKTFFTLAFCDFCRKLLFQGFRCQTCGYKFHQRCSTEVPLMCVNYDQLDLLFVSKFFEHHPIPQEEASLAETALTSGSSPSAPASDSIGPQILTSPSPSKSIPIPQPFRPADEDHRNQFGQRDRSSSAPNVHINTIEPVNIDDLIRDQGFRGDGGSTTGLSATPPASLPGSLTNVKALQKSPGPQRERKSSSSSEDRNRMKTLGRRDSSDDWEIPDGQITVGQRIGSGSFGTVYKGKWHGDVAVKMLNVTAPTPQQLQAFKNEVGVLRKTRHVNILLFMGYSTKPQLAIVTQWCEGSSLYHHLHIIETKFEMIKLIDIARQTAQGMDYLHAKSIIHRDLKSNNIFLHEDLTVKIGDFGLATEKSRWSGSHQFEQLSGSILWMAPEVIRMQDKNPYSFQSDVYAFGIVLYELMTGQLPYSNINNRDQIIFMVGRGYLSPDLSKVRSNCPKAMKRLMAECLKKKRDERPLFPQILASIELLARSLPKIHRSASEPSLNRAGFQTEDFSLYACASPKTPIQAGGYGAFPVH

For the compound `CCN(C)S(=O)(=O)Nc1ccc(F)c(Oc2ccc3ncn(CC(C)CC4CCN(C(=O)CN5CCC(c6ccc(NC7CCC(=O)NC7=O)cc6F)CC5)CC4)c(=O)c3c2)c1C#N` (stereo not drawn) [Example 14, 6-[2-cyano-3-[[ethyl(methyl)sulfamoyl]amino]-6-fluorophenoxy]-3-[3-[1-[2-[4-[4-[(2,6-dioxopiperidin-3-yl)amino]-2-fluorophenyl]piperidin-1-yl]acetyl]piperidin-4-yl]-2-methylpropyl]-4-oxoquinazoline], the Emax (usually the maximal effect, on the per cent scale that the assay sets) was found to be 8.11%. For the same compound, for the setting “A375.10 cells, 24 h”, the DC50 – broadly, the midpoint of the concentration-degradation curve – is 12.5 nM.
Where the note is “A375.10 cells, 24 h”, `CCN(C)S(=O)(=O)Nc1ccc(F)c(Oc2ccc3ncn(C4CCC5(CC4)CCN(C(=O)CN4CCC(c6ccc(NC7CCC(=O)NC7=O)cc6F)CC4)CC5)c(=O)c3c2)c1C#N` (stereo not drawn) [Example 30, 9-[6-[2-cyano-3-[[ethyl(methyl)sulfamoyl]amino]-6-fluorophenoxy]-4-oxoquinazolin-3-yl]-3-[2-[4-[4-[(2,6-dioxopiperidin-3-yl)amino]-2-fluorophenyl]piperidin-1-yl]acetyl]-3-azaspiro[5.5]undecane] displayed a DC50 of 16.4 nM. Besides, the Emax under setting [1] is 12.1%.
Regarding `CC(C)S(=O)(=O)Nc1ccc(F)c(Oc2ccc3ncn([C@H]4COC5(CCN(C(=O)CC6(O)CCN(c7cc8c(cc7F)c(N7CCC(=O)NC7=O)nn8C)CC6)CC5)C4)c(=O)c3c2)c1C#N` [Example 189, N-[2-cyano-3-[3-[(3R)-8-[2-[1-[3-(2,4-dioxo-1,3-diazinan-1-yl)-5-fluoro-1-methylindazol-6-yl]-4-hydroxypiperidin-4-yl]acetyl]-1-oxa-8-azaspiro[4.5]decan-3-yl]-4-oxoquinazolin-6-yl]oxy-4-fluorophenyl]propane-2-sulfonamide], for the setting “A375.10 cells, 24 h”, it took 23.5 nM to reach half-maximal degradation (DC50). In addition, the Emax under setting [1] stood at 24.5%.
As to `CCN(C)S(=O)(=O)Nc1ccc(F)c(Oc2ccc3ncn([C@H]4COC5(CCN(C(=O)CC6CCN(c7ccc(NC8CCC(=O)NC8=O)cc7F)CC6)CC5)C4)c(=O)c3c2)c1C#N` (stereo partly drawn) [Example 47, (3R)-3-[6-[2-cyano-3-[[ethyl(methyl)sulfamoyl]amino]-6-fluorophenoxy]-4-oxoquinazolin-3-yl]-8-[2-[1-[4-[(2,6-dioxopiperidin-3-yl)amino]-2-fluorophenyl]piperidin-4-yl]acetyl]-1-oxa-8-azaspiro[4.5]decane], for the setting “A375.10 cells, 24 h”, it took 25.7 nM to reach half-maximal degradation (DC50). The Emax under setting [1] worked out at 19.3%.
For `CCN(C)S(=O)(=O)Nc1ccc(F)c(Oc2ccc3ncn(CCC(C)C4CCN(C(=O)CN5CCC(c6ccc(NC7CCC(=O)NC7=O)cc6F)CC5)CC4)c(=O)c3c2)c1C#N` (stereo not drawn) [Example 11, 6-[2-cyano-3-[[ethyl(methyl)sulfamoyl]amino]-6-fluorophenoxy]-3-[3-[1-[2-[4-[4-[(2,6-dioxopiperidin-3-yl)amino]-2-fluorophenyl]piperidin-1-yl]acetyl]piperidin-4-yl]butyl]-4-oxoquinazoline] the same measures were 10.1 nM and 9.52%.
For the setting “A375.10 cells, 24 h”, `CCN(C)S(=O)(=O)Nc1ccc(F)c(Oc2ccc3ncn([C@H]4CCC5(CCN(C(=O)CN6CCC(c7ccc8c(N9CCC(=O)NC9=O)nn(C)c8c7)CC6)CC5)C4)c(=O)c3c2)c1C#N` [Example 154, 6-[2-cyano-3-[[ethyl(methyl)sulfamoyl]amino]-6-fluorophenoxy]-3-[(3S)-8-[2-[4-[3-(2,4-dioxo-1,3-diazinan-1-yl)-1-methylindazol-6-yl]piperidin-1-yl]acetyl]-8-azaspiro[4.5]decan-3-yl]-4-oxoquinazoline] showed a DC50 of 24.6 nM. Besides, the Emax under setting [1] was 11.1%.
As for `CCN(C)S(=O)(=O)Nc1ccc(F)c(Oc2ccc3ncc([C@@H]4COC5(CCN(C(=O)CC6(O)CCN(c7cc8c(cc7F)c(N7CCC(=O)NC7=O)nn8C)CC6)CC5)C4)c(OC)c3c2)c1C#N` (single isomer, unassigned) [Example 226], half-maximal degradation (A375.10 cells, 24 h) (DC50) was put at 39.4 nM. Also, the Emax under setting [1] worked out at 28.2%.
For `CCN(C)S(=O)(=O)Nc1ccc(F)c(Oc2ccc3ncn([C@H]4COC5(CCN(C(=O)C[C@H]6CC[C@@H](c7ccc8c(C9CCC(=O)NC9=O)nn(C)c8c7)CC6)CC5)C4)c(=O)c3c2)c1C#N` (single isomer, unassigned) [Example 170], in that order: 30.9 nM and 21.2%.
In turn, `CCN(C)S(=O)(=O)Nc1ccc(F)c(Oc2ccc3ncn(CCC4CCN(C(=O)CN5CCC(c6ccc(NC7CCC(=O)NC7=O)cc6F)CC5)CC4)c(=O)c3c2)c1C#N` (stereo not drawn) [Example 1, 6-[2-cyano-3-[[ethyl(methyl)sulfamoyl]amino]-6-fluorophenoxy]-3-[2-[1-[2-[4-[4-[(2,6-dioxopiperidin-3-yl)amino]-2-fluorophenyl]piperidin-1-yl]acetyl]piperidin-4-yl]ethyl]-4-oxoquinazoline] showed a DC50 (A375.10 cells, 24 h) of 46.9 nM. In addition, the Emax under setting [1] worked out at 13.9%.
Regarding `CCN(C)S(=O)(=O)Nc1ccc(F)c(Oc2ccc3ncn(C4COC5(CCN(C(=O)CC6(O)CCN(c7cc8c(cc7F)c(N7CCC(=O)NC7=O)nn8C)CC6)CC5)C4)c(=O)c3c2N(C)C)c1C#N` (stereo not drawn) [Example 179, 3-[6-[2-cyano-3-[[ethyl(methyl)sulfamoyl]amino]-6-fluorophenoxy]-5-(dimethylamino)-4-oxoquinazolin-3-yl]-8-[2-[1-[3-(2,4-dioxo-1,3-diazinan-1-yl)-5-fluoro-1-methylindazol-6-yl]-4-hydroxypiperidin-4-yl]acetyl]-1-oxa-8-azaspiro[4.5]decane], the DC50 (A375.10 cells, 24 h) was determined as 27.8 nM. Under setting [1], the Emax came to 19.3%.
`CCN(C)S(=O)(=O)Nc1ccc(F)c(Oc2ccc3ncn(-c4cnc(N5CCN(C(=O)CN6CCC(c7ccc(N[C@@H]8CCC(=O)NC8=O)cc7F)CC6)CC5)nc4)c(=O)c3c2O)c1C#N` [Example 137, 6-[2-cyano-3-[[ethyl(methyl)sulfamoyl]amino]-6-fluorophenoxy]-3-[2-[4-[2-[4-[4-[[(3R)-2,6-dioxopiperidin-3-yl]amino]-2-fluorophenyl]piperidin-1-yl]acetyl]piperazin-1-yl]pyrimidin-5-yl]-5-hydroxy-4-oxoquinazoline] showed a DC50 (A375.10 cells, 24 h) of 34.2 nM. Under setting [1], the Emax was 25.1%.
`CCN(C)S(=O)(=O)Nc1ccc(F)c(Oc2ccc3ncn(-c4cnn(C5CCN(C(=O)CN6CCC(c7ccc(NC8CCC(=O)NC8=O)cc7F)CC6)CC5)c4)c(=O)c3c2)c1C#N` (stereo not drawn) [Example 16, 6-[2-cyano-3-[[ethyl(methyl)sulfamoyl]amino]-6-fluorophenoxy]-3-[1-[1-[2-[4-[4-[(2,6-dioxopiperidin-3-yl)amino]-2-fluorophenyl]piperidin-1-yl]acetyl]piperidin-4-yl]pyrazol-4-yl]-4-oxoquinazoline] gave a DC50 (A375.10 cells, 24 h) of 20.5 nM. Moreover, the Emax under setting [1] is 15.5%.
For the compound `CCN(C)S(=O)(=O)Nc1ccc(F)c(Oc2ccc3ncn([C@H]4CCC5(CCN(C(=O)CN6CCC(c7ccc(NC8CCC(=O)NC8=O)c(F)c7F)CC6)CC5)C4)c(=O)c3c2)c1C#N` (stereo partly drawn) [Example 63, 6-[2-cyano-3-[[ethyl(methyl)sulfamoyl]amino]-6-fluorophenoxy]-3-[(3S)-8-[2-[4-[4-[(2,6-dioxopiperidin-3-yl)amino]-2,3-difluorophenyl]piperidin-1-yl]acetyl]-8-azaspiro[4.5]decan-3-yl]-4-oxoquinazoline], the Emax worked out at 9.52%. The compound further returned a DC50 (A375.10 cells, 24 h) of 20.4 nM.
As for `Cn1nc(N2CCC(=O)NC2=O)c2cc(F)c(N3CCC(O)(CC(=O)N4CCC5(CC4)C[C@@H](n4cnc6ccc(Oc7c(F)ccc(NS(=O)(=O)N8CC[C@@H](F)C8)c7C#N)cc6c4=O)CO5)CC3)cc21` [Example 190, (3R)—N-[2-cyano-3-[3-[(3R)-8-[2-[1-[3-(2,4-dioxo-1,3-diazinan-1-yl)-5-fluoro-1-methylindazol-6-yl]-4-hydroxypiperidin-4-yl]acetyl]-1-oxa-8-azaspiro[4.5]decan-3-yl]-4-oxoquinazolin-6-yl]oxy-4-fluorophenyl]-3-fluoropyrrolidine-1-sulfonamide], the DC50 (A375.10 cells, 24 h) amounted to 39.3 nM. Further, under setting [1], the Emax amounted to 24.7%.
`CCN(C)S(=O)(=O)Nc1ccc(F)c(Oc2ccc3ncn(CCC4CCN(C(=O)CN5CCC(c6ccc(NC7CCC(=O)NC7=O)c(F)c6)CC5)CC4)c(=O)c3c2)c1C#N` (stereo not drawn) [Example 3, 6-[2-cyano-3-[[ethyl(methyl)sulfamoyl]amino]-6-fluorophenoxy]-3-[2-[1-[2-[4-[4-[(2,6-dioxopiperidin-3-yl)amino]-3-fluorophenyl]piperidin-1-yl]acetyl]piperidin-4-yl]ethyl]-4-oxoquinazoline]: the maximal response (Emax) was 14.7%. Further, under “A375.10 cells, 24 h”, half-maximal degradation (DC50) was put at 35.9 nM.
Turning to `CCN(C)S(=O)(=O)Nc1ccc(F)c(Oc2ccc3ncn([C@H]4COC5(CCN(C(=O)CC6(F)CCN(c7cc8c(cc7F)c(N7CCC(=O)NC7=O)nn8C)CC6)CC5)C4)c(=O)c3c2)c1C#N` [Example 201, (3R)-3-[6-[2-cyano-3-[[ethyl(methyl)sulfamoyl]amino]-6-fluorophenoxy]-4-oxoquinazolin-3-yl]-8-[2-[1-[3-(2,4-dioxo-1,3-diazinan-1-yl)-5-fluoro-1-methylindazol-6-yl]-4-fluoropiperidin-4-yl]acetyl]-1-oxa-8-azaspiro[4.5]decane], the DC50 (A375.10 cells, 24 h) was determined as 42.5 nM. For the same compound, under setting [1], the Emax is 27.2%.
Turning to `CCN(C)S(=O)(=O)Nc1ccc(F)c(Oc2ccc3ncn(C4COC5(CCN(C(=O)CN6CCC(c7ccc8c(C9CCC(=O)NC9=O)nn(C)c8c7)CC6)CC5)C4)c(=O)c3c2)c1C#N` (single isomer, unassigned) [Example 150], it took 12.4 nM to reach half-maximal degradation (A375.10 cells, 24 h) (DC50). In addition, the Emax under setting [1] came out at 11.5%.
For `CCN(C)S(=O)(=O)Nc1ccc(F)c(Oc2ccc3ncn(CCCC4CCN(C(=O)CN5CCC(c6ccc7c(C8CCC(=O)NC8=O)nn(C)c7c6)CC5)CC4)c(=O)c3c2)c1C#N` (stereo not drawn) [Example 145, 6-[2-cyano-3-[[ethyl(methyl)sulfamoyl]amino]-6-fluorophenoxy]-3-[3-[1-[2-[4-[3-(2,6-dioxopiperidin-3-yl)-1-methylindazol-6-yl]piperidin-1-yl]acetyl]piperidin-4-yl]propyl]-4-oxoquinazoline], in that order: 10.6 nM and 15%.
